34 compounds from ChEMBL document CHEMBL5380813, “Discovery of 2H-Indazole-3-carboxamide Derivatives as Novel Potent Prostanoid EP4 Receptor Antagonists for Colorectal Cancer Immunotherapy” (J Med Chem, 2023) can be followed below.

In general, IC50 refers to the concentration that gives 50% inhibition. By CLint scaled is commonly meant a measure of how fast metabolising enzymes remove a compound, apart from limits set by blood flow.

The target in series [1] is T1, Prostaglandin E2 receptor EP4 subtype (Homo sapiens, UniProt P35408). The experiment in a line: Antagonist activity at human EP4 receptor transfected in HEK293 cells assessed as inhibition of PGE2-induced cAMP production measured for 30 mins by Glosensor cAMP assay.
T1 sequence (P35408 whole entry): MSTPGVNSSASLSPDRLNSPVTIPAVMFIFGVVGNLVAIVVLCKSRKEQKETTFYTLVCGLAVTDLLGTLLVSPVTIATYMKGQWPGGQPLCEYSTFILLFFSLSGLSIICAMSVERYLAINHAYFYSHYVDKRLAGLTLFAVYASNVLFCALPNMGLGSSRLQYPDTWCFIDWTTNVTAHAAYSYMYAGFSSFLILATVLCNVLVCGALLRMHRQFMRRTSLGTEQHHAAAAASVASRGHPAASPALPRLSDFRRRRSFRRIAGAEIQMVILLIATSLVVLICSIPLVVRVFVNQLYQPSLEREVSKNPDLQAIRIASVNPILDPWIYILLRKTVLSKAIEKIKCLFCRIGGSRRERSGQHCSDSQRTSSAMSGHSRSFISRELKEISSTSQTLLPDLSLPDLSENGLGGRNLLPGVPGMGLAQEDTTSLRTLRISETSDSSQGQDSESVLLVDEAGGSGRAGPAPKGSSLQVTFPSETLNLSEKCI
A short description of series [2]: Metabolic stability in human liver assessed as intrinsic clearance.
In series [3] the target is T1, Prostaglandin E2 receptor EP4 subtype. In words: Antagonist activity at EP4 receptor (unknown origin) by GloSensor cAMP assay. (In general: Cyclic AMP is a second messenger, typically raised through Gs and lowered through Gi signalling.)
The target of series [4] is Cytochrome P450 2C19 (Homo sapiens, UniProt P33261). In words: Inhibition of CYP2C19 (unknown origin). Format: ADME.
Cytochrome P450 2C19, sequence (P33261 whole entry): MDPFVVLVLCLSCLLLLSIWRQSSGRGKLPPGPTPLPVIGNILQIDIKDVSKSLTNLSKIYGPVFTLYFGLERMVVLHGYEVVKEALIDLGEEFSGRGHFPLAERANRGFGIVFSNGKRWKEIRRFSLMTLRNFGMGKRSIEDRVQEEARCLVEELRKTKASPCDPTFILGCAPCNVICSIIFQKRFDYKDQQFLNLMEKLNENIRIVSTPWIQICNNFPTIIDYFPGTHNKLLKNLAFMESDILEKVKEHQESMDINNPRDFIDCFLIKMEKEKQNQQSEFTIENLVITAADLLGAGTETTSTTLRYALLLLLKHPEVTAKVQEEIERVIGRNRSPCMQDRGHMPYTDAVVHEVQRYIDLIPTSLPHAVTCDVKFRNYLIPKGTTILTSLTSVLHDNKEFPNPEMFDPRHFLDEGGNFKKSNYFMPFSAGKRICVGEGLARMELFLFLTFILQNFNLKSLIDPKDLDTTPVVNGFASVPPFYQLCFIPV
In series [5] the target is T2, Cytochrome P450 1A2 (Homo sapiens, UniProt P05177).
T2 sequence (P05177 whole entry): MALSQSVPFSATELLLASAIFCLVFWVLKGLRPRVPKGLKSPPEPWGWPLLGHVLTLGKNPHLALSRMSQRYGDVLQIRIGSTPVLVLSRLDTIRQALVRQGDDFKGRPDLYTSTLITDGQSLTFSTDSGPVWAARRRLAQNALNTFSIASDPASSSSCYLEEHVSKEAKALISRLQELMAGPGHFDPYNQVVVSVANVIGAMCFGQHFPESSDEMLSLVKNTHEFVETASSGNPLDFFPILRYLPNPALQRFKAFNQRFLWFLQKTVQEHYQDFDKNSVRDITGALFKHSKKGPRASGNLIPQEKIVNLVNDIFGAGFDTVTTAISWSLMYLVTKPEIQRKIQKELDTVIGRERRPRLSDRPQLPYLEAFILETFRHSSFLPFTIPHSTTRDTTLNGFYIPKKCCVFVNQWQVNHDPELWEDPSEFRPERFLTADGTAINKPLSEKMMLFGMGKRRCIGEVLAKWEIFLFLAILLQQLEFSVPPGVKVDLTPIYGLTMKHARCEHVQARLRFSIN
The experiment in a line: Inhibition of CYP1A2 (unknown origin). In kind it is ADME.

Series [6] has as its target Prostaglandin E2 receptor EP4 subtype (Rattus norvegicus, UniProt P43114). In words: Antagonist activity at rat EP4 receptor transfected in HEK293 cells assessed as inhibition of PGE2-induced cAMP production measured for 30 mins by Glosensor cAMP assay. In kind it is functional, cell-based.
Series [7] has as its target Cytochrome P450 2D6 (Homo sapiens, UniProt P10635). In words: Inhibition of CYP2D6 (unknown origin). Format: ADME.
The target of series [8] is Cytochrome P450 2C9 (Homo sapiens, UniProt P11712). In words: Inhibition of CYP2C9 (unknown origin). Format: ADME.
Cytochrome P450 2C9, sequence (P11712 whole entry): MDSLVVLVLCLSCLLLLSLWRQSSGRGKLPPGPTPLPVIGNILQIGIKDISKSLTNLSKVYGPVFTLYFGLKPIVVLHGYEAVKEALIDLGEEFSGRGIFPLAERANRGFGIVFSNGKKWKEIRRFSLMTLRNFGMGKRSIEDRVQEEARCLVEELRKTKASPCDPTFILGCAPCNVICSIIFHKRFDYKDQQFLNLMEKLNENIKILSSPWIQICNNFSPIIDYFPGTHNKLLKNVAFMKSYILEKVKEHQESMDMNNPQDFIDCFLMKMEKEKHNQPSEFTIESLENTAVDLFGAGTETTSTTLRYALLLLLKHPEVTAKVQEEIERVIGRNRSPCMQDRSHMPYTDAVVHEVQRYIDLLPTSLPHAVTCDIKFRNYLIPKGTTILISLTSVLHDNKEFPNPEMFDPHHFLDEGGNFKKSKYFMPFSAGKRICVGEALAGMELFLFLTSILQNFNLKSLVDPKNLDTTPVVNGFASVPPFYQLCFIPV
Series [9] addresses T3, Prostaglandin E2 receptor EP3 subtype (Homo sapiens, UniProt P43115).
T3 sequence (P43115 whole entry): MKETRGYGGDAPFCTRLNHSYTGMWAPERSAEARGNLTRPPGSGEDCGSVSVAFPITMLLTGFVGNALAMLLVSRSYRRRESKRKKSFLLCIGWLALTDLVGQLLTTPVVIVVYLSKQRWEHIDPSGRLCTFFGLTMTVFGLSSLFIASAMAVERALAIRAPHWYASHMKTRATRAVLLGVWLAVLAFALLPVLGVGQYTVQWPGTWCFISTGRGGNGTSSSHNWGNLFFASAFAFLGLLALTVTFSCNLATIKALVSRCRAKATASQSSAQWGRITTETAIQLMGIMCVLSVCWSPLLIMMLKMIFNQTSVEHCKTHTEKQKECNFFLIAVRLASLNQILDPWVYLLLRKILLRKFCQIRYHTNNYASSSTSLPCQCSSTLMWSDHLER
The experiment in a line: Antagonist activity at human EP3 receptor expressed in CHO cells co-expressing Galpha16 assessed as inhibition of PGE2 induced intracellular calcium flux preincubated for 20 mins followed by PGE2 stimulation and measured immediately by microplate reader analysis. Format: functional, cell-based. On the technique in general: Calcium flux is commonly read through the fluorescence of an indicator in the cells.

For series [10], the target named is Prostaglandin E2 receptor EP2 subtype (Homo sapiens, UniProt P43116). In words: Antagonist activity at human EP2 receptor expressed in CHO cells co-expressing Galpha16 assessed as inhibition of PGE2 induced intracellular calcium flux preincubated for 20 mins followed by PGE2 stimulation and measured immediately by microplate reader analysis. Format: functional, cell-based.
Prostaglandin E2 receptor EP2 subtype, sequence (P43116 whole entry): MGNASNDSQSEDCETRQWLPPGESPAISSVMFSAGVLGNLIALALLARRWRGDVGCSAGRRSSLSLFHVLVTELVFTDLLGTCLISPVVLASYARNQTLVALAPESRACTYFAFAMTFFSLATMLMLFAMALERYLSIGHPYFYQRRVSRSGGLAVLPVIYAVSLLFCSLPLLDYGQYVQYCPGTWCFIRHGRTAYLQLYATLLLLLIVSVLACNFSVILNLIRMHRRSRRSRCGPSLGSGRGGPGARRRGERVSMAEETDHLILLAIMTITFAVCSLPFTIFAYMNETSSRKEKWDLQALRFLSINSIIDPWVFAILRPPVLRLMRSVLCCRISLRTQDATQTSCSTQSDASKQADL

For series [11], the target named is CYP3A (Homo sapiens, UniProt P08684+P20815+P24462+Q9HB55). In words: Inhibition of CYP3A (unknown origin) assessed as reduction in midazolam […] activity. In kind it is ADME, protein assay. As to conditions: probe midazolam.
Series [12] concerns the target Prostaglandin E2 receptor EP4 subtype (Mus musculus, UniProt P32240). In words: Antagonist activity at mouse EP4 receptor transfected in HEK293 cells assessed as inhibition of PGE2-induced cAMP production measured for 30 mins by Glosensor cAMP assay. In kind it is functional, cell-based.
The conditions of series [13]: human, microsomes.
Description: Metabolic stability in human liver microsomes assessed as assessed as intrinsic clearance
Series [14] has as its system CT26. In words: animal or person. As to conditions: Mus musculus, CT26, po, 240 h, read-out: TGI.
Description: Antitumor activity against mouse CT26 cells implanted in BALB/c mouse assessed as tumor growth inhibition at 100 mg/kg, po administered daily for 10 days and measured every 2 days relative to control

A value given as a limit tells only on which side of the number the result lay.

Cytochrome P450 2D6, sequence (P10635 whole entry): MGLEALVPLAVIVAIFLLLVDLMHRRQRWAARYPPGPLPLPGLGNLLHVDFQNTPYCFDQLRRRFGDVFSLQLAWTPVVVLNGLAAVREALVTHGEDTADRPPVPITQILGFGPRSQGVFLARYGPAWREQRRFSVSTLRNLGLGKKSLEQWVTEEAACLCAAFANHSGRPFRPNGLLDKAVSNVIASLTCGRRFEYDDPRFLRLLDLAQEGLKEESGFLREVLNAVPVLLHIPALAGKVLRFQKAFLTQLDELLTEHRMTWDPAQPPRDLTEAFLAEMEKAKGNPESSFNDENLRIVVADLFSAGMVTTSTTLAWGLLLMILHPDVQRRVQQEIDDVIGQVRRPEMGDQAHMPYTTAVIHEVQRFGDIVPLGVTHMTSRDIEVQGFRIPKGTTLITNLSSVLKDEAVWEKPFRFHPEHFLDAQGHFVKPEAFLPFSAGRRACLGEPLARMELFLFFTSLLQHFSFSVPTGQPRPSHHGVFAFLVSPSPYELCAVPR
Prostaglandin E2 receptor EP4 subtype (Mus musculus, UniProt P32240), sequence (P32240 whole entry): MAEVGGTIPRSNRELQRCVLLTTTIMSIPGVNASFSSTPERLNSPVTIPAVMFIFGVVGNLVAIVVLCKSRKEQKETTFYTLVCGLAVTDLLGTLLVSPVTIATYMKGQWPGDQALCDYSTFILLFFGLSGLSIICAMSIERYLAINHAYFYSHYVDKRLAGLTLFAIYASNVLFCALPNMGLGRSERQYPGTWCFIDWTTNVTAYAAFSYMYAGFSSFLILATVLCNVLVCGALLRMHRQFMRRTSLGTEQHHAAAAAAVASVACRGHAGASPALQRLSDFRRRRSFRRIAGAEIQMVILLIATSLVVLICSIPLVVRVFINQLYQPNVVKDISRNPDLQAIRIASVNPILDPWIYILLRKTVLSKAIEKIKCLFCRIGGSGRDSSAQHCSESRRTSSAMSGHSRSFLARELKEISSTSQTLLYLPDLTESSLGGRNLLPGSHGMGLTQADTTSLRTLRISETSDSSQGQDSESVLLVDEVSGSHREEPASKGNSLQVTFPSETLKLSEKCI
Prostaglandin E2 receptor EP4 subtype (Rattus norvegicus, UniProt P43114), sequence (P43114 whole entry): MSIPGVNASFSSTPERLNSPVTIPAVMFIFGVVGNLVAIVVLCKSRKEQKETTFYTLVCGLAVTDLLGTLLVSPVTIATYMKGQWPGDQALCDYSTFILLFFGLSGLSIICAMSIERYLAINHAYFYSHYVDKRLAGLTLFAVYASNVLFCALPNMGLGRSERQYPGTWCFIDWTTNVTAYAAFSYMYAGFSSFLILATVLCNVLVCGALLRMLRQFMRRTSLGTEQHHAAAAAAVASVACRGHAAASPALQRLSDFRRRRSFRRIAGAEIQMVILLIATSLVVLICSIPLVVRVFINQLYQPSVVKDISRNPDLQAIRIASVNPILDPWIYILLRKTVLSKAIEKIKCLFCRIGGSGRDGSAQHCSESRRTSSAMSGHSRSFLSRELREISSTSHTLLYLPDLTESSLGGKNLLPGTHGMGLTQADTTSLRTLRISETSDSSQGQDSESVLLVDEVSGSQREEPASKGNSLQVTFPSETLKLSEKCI

`O=C(O)c1ccc(CNC(=O)c2c3ccccc3nn2Cc2cccc(Cl)c2)cc1`: the IC50 in [1] turned out to be 6.9 nM.

Regarding `COc1ccc(Cn2nc3ccccc3c2C(=O)N[C@@H](C)c2ccc(C(=O)O)cc2)cc1`, in series [1], the IC50 came to 7.2 nM.

Regarding `O=C(O)c1cccc(NC(=O)c2c3ccccc3nn2Cc2cccc(F)c2)c1`, the IC50 in [1] was found to be 10000 nM. Still for that read-out and setting: the figure for `O=C(O)c1cccc(NC(=O)c2c3ccccc3nn2Cc2ccc(F)cc2)c1` is 10000 nM; for `O=C(O)c1ccc(CNC(=O)c2c3ccccc3nn2CCOc2ccc(Cl)cc2)cc1` it is 21.8 nM. For the compound `O=C(O)c1ccc(C2(NC(=O)c3c4ccccc4nn3Cc3ccc(C(F)(F)F)cc3)CC2)cc1`, in [1], the IC50 came to 6.9 nM. With `O=C(O)c1ccc(CNC(=O)c2nn(Cc3cccc(C(F)(F)F)c3)c3ccccc23)cc1`, the IC50 in series [1] was determined as 10000 nM. Still for that read-out and setting: the figure for `COc1cccc(Cn2nc3ccccc3c2C(=O)N[C@@H](C)c2ccc(C(=O)O)cc2)c1` is 19 nM; for `COc1ccc(Cn2nc3ccccc3c2C(=O)NCc2ccc(C(=O)O)cc2)cc1F` it is 2.1 nM; for `Cc1ccc(Cn2nc3ccccc3c2C(=O)NCc2ccc(C(=O)O)cc2)cc1` it is 4.2 nM. Consider `O=C(O)c1ccc(CNC(=O)c2c3ccc(F)cc3nn2Cc2ccc(C(F)(F)F)cc2)cc1`, for which, in [1], the IC50 stood at 5.7 nM. Further, the CLint scaled in series [2] was below 8.6 mL/min/kg. `O=C(O)c1ccc(CNC(=O)c2nn(Cc3ccccc3)c3ccccc23)cc1`: the IC50 in [1] is 10000 nM. Still for that read-out and setting: next, `C[C@H](NC(=O)c1c2ccccc2nn1Cc1ccc(OC(F)(F)F)cc1)c1ccc(C(=O)O)cc1`: 4.3 nM; `O=C(O)c1ccc(CNC(=O)c2c3ccccc3nn2CCOc2cccc(C(F)(F)F)c2)cc1`: 69.1 nM. On the same count and under the same terms, the figure for `COc1ccc(Cn2nc(C(=O)NCc3ccc(C(=O)O)cc3)c3ccccc32)cc1` is 10000 nM; for `COc1ccc(Cn2nc3ccccc3c2C(=O)NCc2ccc(C(=O)O)cc2)cc1Cl` it is 6.5 nM. Still for that read-out and setting: the figure for `COc1ccc2c(C(=O)NCc3ccc(C(=O)O)cc3)n(Cc3ccc(C(F)(F)F)cc3)nc2c1` is 59.4 nM. Turning to `O=C(O)c1ccc(NC(=O)c2c3ccccc3nn2Cc2ccc(F)cc2)cc1`, in [3], the IC50 is 3110 nM. For the compound `O=C(O)c1ccc(CNC(=O)c2nn(Cc3cccc(Cl)c3)c3ccccc23)cc1`, the IC50 in series [1] turned out to be 10000 nM. Still for that read-out and setting: the figure for `COc1ccc(Cn2nc3ccccc3c2C(=O)NCc2ccc(C(=O)O)cc2)cc1` is 4.4 nM; for `O=C(O)c1ccc(CNC(=O)c2c3ccccc3nn2Cc2ccc(F)cc2)cc1` it is 7.1 nM.

`O=C(O)c1ccc(CNC(=O)c2c3ccccc3nn2Cc2ccc(Cl)c(F)c2)cc1`: the IC50 in [1] was 1.7 nM. Moreover, the CLint scaled in series [2] was below 8.6 mL/min/kg.

As to `O=C(O)c1ccc(CNC(=O)c2nn(Cc3ccc(OC(F)(F)F)cc3)c3ccccc23)cc1`, the half-maximal inhibitory concentration (IC50) in series [1] stood at 10000 nM. Consider `O=C(O)c1ccc(CNC(=O)c2c3ccccc3nn2Cc2ccc(C(F)(F)F)cc2F)cc1`, for which the IC50 in series [1] amounted to 2 nM.

On to `COc1c(F)cc(Cn2nc3ccccc3c2C(=O)NCc2ccc(C(=O)O)cc2)cc1F`, for which, in series [1], the IC50 was 7.5 nM. For the compound `COc1cccc(Cn2nc3ccccc3c2C(=O)NCc2ccc(C(=O)O)cc2)c1`, in series [1], the IC50 worked out at 12 nM. With `O=C(O)c1ccc(CNC(=O)c2c3ccccc3nn2Cc2ccc(C(F)(F)F)cc2)cc1`, the IC50 in series [4] is above 50000 nM; in [5], above 50000 nM; in [6], 36.3 nM; in series [7], above 50000 nM; in [8], above 50000 nM; in series [9] it was above 10000 nM. Also, the IC50 in series [10] was above 10000 nM; in series [11], above 50000 nM; in series [12], 1.6 nM. Take `O=C(O)c1ccc(CNC(=O)c2c3ccccc3nn2Cc2cccc(F)c2)cc1`: the IC50 in series [1] turned out to be 17 nM. The same measure, in the same setting: the figure for `O=C(O)c1ccc(CNC(=O)c2nn(Cc3ccc(Cl)cc3)c3ccccc23)cc1` is 10000 nM.

Turning to `COc1cccc(Cn2nc(C(=O)NCc3ccc(C(=O)O)cc3)c3ccccc32)c1`, the IC50 in series [1] is 10000 nM. Same read-out and setting: next, `O=C(O)c1ccc(CNC(=O)c2nn(Cc3ccc(C(F)(F)F)cc3)c3ccccc23)cc1`: 10000 nM. `O=C(O)Cc1ccccc1Nc1c(Cl)cccc1Cl` [DICLOFENAC]: in series [13], the CLH was 0.2079 mL/min/kg. In addition, the CLint scaled in [2] was 187 mL/min/kg. In the case of `C[C@H](NC(=O)c1c(C(F)F)nn(C)c1Oc1cccc(C(F)(F)F)c1)c1ccc(C(=O)O)cc1` [PALUPIPRANT], the inhibition in vivo at 100 mg/kg in [14] came out at 43.3%.

Consider `C[C@]12CC[C@H]3[C@@H](CCC4=CC(=O)CC[C@@]43C)[C@@H]1CC[C@@H]2O` [TESTOSTERONE], for which the CLH in [13] came out at 0.1082 mL/min/kg. In addition, the CLint scaled in series [2] is 97.4 mL/min/kg.
